Assay in all cases: inhibition of tumour cell growth, NCI panel, 48 h
Assay [1] relates to 786-0.
The test system of assay [2] is A498.
For assay [3], the system named is A549.
Assay [4] concerns BT-549.
Assay [5] deals with COLO 205.
In assay [6] the test system is DU-145.
Assay [7] has as its system HL-60.
For assay [8], the system named is HOP-92.
In assay [9] the test system is MDA-N.
Assay [10] has as its system MOLT-4.
For assay [11], the system named is NCI/ADR-RES.
For assay [12], the system named is OVCAR-4.
The test system of assay [13] is PC-3.
Assay [14] concerns RPMI-8226.
Assay [15] has as its system SF-539.
Assay [16] concerns SK-MEL-28.
Assay [17] relates to SK-OV-3.
In assay [18] the test system is SNB-19.
Assay [19] has as its system UO-31.
Assay [20] relates to IGROV-1.

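Briefly, cells in 96-well plates were exposed to five compound concentrations for 48 h, and endpoints were estimated by linear interpolation. GI50 marks 50% less growth.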 Activity calls are given as the source filed them. No stated cut-off is given here; in the data, active = GI50 up to about 1.1 µM and inactive = higher.

With `O=C(c1ccc(-c2ccccc2)cc1)N(Cc1cccnc1)C(=S)N(Cc1cccnc1)C(=O)c1ccc(-c2ccccc2)cc1`, the GI50 was > 100 µM (inactive) in [1]; > 100 µM (inactive) in assay [2]; > 100 µM (inactive) in assay [3]; 55 µM (inactive) in assay [4]; > 100 µM (inactive) in assay [5]; > 100 µM (inactive) in assay [6]. The GI50 in [7] is 24.5 µM (inactive); in assay [8], 8.95 µM (inactive); in assay [9], 43.5 µM (inactive); in assay [10], 0.198 µM (active); in assay [11], > 100 µM (inactive); in assay [12], 32.7 µM (inactive). In addition, the GI50 in assay [13] is > 100 µM (inactive); in assay [14], 3.56 µM (inactive); in [15], > 100 µM (inactive); in [16] it was > 100 µM (inactive); in assay [17], > 100 µM (inactive); in assay [18], > 100 µM (inactive). Moreover, the GI50 in assay [19] is 51.9 µM (inactive).
In the case of `COc1cc(C2CC(C)(N3CCCC3)Oc3cc4c(cc32)OCO4)cc(OC)c1OC` (stereo not given), the GI50 in assay [1] is 0.383 µM (active); in assay [2] it was 0.578 µM (active); in assay [3] it was 0.462 µM (active); in [4], 0.794 µM (active); in assay [5], 2.9 µM (inactive); in assay [6], 0.42 µM (active). Moreover, the GI50 in [7] was 0.13 µM (active); in assay [8], 62.1 µM (inactive); in assay [20], 0.31 µM (active); in [9] it was 0.0275 µM (active); in [10], 0.21 µM (active); in assay [11], 0.582 µM (active). The GI50 was 19.5 µM (inactive) in assay [12]; 0.0889 µM (active) in [13]; 0.215 µM (active) in assay [15]; 0.569 µM (active) in assay [16]; 0.277 µM (active) in assay [18]; 0.624 µM (active) in assay [19].
Turning to `Nc1cccc(OCc2nc(N)nc(N)c2-c2ccc(Cl)cc2)c1`, the GI50 in assay [1] is 53.5 µM (inactive); in assay [2] it was 39.4 µM (inactive); in [3], 35.8 µM (inactive); in assay [4] it was 36.1 µM (inactive); in assay [5] it was 18.6 µM (inactive); in assay [6], 73.1 µM (inactive). For the same compound, the GI50 in assay [7] was 23.8 µM (inactive); in assay [8], 31.3 µM (inactive); in assay [20] it was 37.3 µM (inactive); in assay [9], 42.1 µM (inactive); in assay [10] it was 26.1 µM (inactive); in assay [11] it was 44 µM (inactive). In addition, the GI50 in assay [12] is 49.7 µM (inactive); in assay [13], 41.3 µM (inactive); in [14], 37.8 µM (inactive); in [16] it was 70 µM (inactive); in assay [17] it was 89.1 µM (inactive); in [18], > 100 µM (inactive). Also, the GI50 in [19] was 36.3 µM (inactive).
As for `FC(F)(F)c1ccc2c(c1)nc(-c1ccc(Cl)cc1)n2CC1CCCN2CCCCC12` (stereo not given), the GI50 in [1] was 13.8 µM (inactive); in assay [2] it was 14.2 µM (inactive); in assay [3], 14.8 µM (inactive); in assay [4], 14.4 µM (inactive); in assay [5] it was 11.6 µM (inactive); in [6] it was 14.9 µM (inactive). Further, the GI50 is 11.8 µM (inactive) in assay [7]; 12.8 µM (inactive) in [8]; 14.4 µM (inactive) in assay [20]; 15.7 µM (inactive) in assay [9]; 0.233 µM (active) in assay [10]; 14.8 µM (inactive) in assay [11]. The GI50 was 15.8 µM (inactive) in [12]; 11.6 µM (inactive) in assay [13]; 14.8 µM (inactive) in assay [15]; 14.9 µM (inactive) in [16]; 6.7 µM (inactive) in assay [17]; 17.1 µM (inactive) in assay [18]. The GI50 in assay [19] is 10.7 µM (inactive).
As for `CCC(O)CC1OC2(CCC1C)CC1OC(=O)/C=C\C(C)(O)C(O)C(C)C(O)C(OC3CC(OC)C(O)C(C)O3)C(O)C(C)(O)CCC/C=C/C3CC(C)COC3(O)CC(O2)C1C` (stereo not given), the GI50 in assay [1] is 20.2 µM (inactive); in [2], 3.82 µM (inactive); in assay [3], < 0.0214 µM (active); in assay [4], 3.66 µM (inactive); in assay [5], 0.237 µM (active); in assay [6], 2.67 µM (inactive). For the same compound, the GI50 in assay [7] is < 0.0199 µM (active); in assay [8], 25.6 µM (inactive); in [20], 18.3 µM (inactive); in assay [9] it was 2.05 µM (inactive); in assay [10], 0.335 µM (active); in assay [11], 1.67 µM (inactive). Also, the GI50 is < 0.0251 µM (active) in assay [13]; < 0.01 µM (active) in assay [14]; 17.3 µM (inactive) in [15]; 13.8 µM (inactive) in [16]; 26.6 µM (inactive) in assay [17]; 0.0743 µM (active) in [18]. Further, the GI50 in [19] is 11.2 µM (inactive).
Consider `C=CCOc1ccc(C2C(C(=O)OC)C(=O)CC(O)(c3ccccc3)C2C(=O)OC)cc1OC` (stereo not given), for which the GI50 in [1] was 17 µM (inactive); in assay [2] it was 22.8 µM (inactive); in assay [3], 34.4 µM (inactive); in [4], 30.6 µM (inactive); in [5], 63.1 µM (inactive); in [6] it was 51.6 µM (inactive). Moreover, the GI50 in assay [7] was 31.6 µM (inactive); in [8], 18 µM (inactive); in [20] it was 34.7 µM (inactive); in assay [9], 58.9 µM (inactive); in assay [10], 27.5 µM (inactive); in assay [11], 22.8 µM (inactive). Moreover, the GI50 was 23.6 µM (inactive) in [12]; 31.7 µM (inactive) in assay [13]; 41 µM (inactive) in assay [16]; > 100 µM (inactive) in [18]; 22.4 µM (inactive) in assay [19].
Take `CCOC(=O)c1c(N2CCCC2)[nH]c(=O)c(C(c2ccco2)c2c(O)c(C(=O)OCC)c(N3CCCC3)[nH]c2=O)c1O`: the GI50 was 29.2 µM (inactive) in assay [1]; > 100 µM (inactive) in assay [2]; > 100 µM (inactive) in assay [3]; > 100 µM (inactive) in assay [4]; > 100 µM (inactive) in assay [5]; > 100 µM (inactive) in [6]. Further, the GI50 in assay [7], in assay [8], in assay [9], in assay [10], in assay [11] and in assay [12] was > 100 µM (inactive) each time. The GI50 was > 100 µM (inactive) in assay [13]; 84.3 µM (inactive) in assay [14]; > 100 µM (inactive) in assay [15]; > 100 µM (inactive) in assay [16]; > 100 µM (inactive) in [17]; 38.7 µM (inactive) in assay [18]. The GI50 in assay [19] was > 100 µM (inactive).
Regarding `Cc1cn(C2CC(N=[N+]=[N-])C(COP(=O)(O)OCC3OC(n4cc(F)c(=O)[nH]c4=O)CC3O)O2)c(=O)[nH]c1=O` (stereo not given), the GI50 in [1] is 0.381 µM (active); in [2], 3.37 µM (inactive); in assay [3], 0.368 µM (active); in assay [4], > 100 µM (inactive); in assay [5] it was > 100 µM (inactive); in assay [6], 4.1 µM (inactive). For the same compound, the GI50 in assay [7] was 9.1 µM (inactive); in assay [8], 1.11 µM (active); in [20] it was 2.88 µM (inactive); in assay [9], 38.3 µM (inactive); in assay [10] it was 2.22 µM (inactive); in assay [11] it was 0.57 µM (active). Further, the GI50 is > 100 µM (inactive) in [13]; 0.311 µM (active) in assay [14]; 0.0438 µM (active) in assay [15]; > 77.4 µM (inactive) in assay [16]; > 100 µM (inactive) in assay [17]; > 31.6 µM (inactive) in assay [18]. Also, the GI50 in [19] was 0.465 µM (active).
In the case of `COc1ccc(-c2c(=O)[nH]n3c(=S)[nH]c(-c4ccccc4)nc23)cc1OC`, the GI50 was 17.2 µM (inactive) in assay [1]; 18.1 µM (inactive) in assay [2]; 31.7 µM (inactive) in assay [3]; 17.4 µM (inactive) in [4]; 16.8 µM (inactive) in assay [5]; 23 µM (inactive) in assay [6]. Moreover, the GI50 in assay [7] was 18 µM (inactive); in assay [8], 17.7 µM (inactive); in [20], 23.8 µM (inactive); in assay [9], 14.8 µM (inactive); in assay [10], 8.51 µM (inactive); in assay [11] it was 21.3 µM (inactive). Also, the GI50 in [12] is 21 µM (inactive); in [13] it was 31.3 µM (inactive); in [16] it was 21.3 µM (inactive); in assay [17], 25.1 µM (inactive); in [18], 15 µM (inactive); in assay [19], 17 µM (inactive).
Turning to `N#CC1(C#N)NC(c2cccnc2)C(C#N)(C#N)NC1c1cccnc1` (stereo not given), the GI50 in [1], in assay [2], in [3], in [4], in [5] and in assay [6] was > 100 µM (inactive) throughout. In addition, the GI50 in [7], in assay [8], in [20], in assay [9], in assay [10] and in assay [11] was > 100 µM (inactive) throughout. Besides, the GI50 in [12], in [13], in assay [14], in [15], in [16] and in assay [17] was > 100 µM (inactive) in each case.

For the origin of these results see ChEMBL document CHEMBL1201862, “PubChem BioAssay data set” (2004).
